From patent US20260274875A1, “[…] COMPOUNDS, PREPARATION METHOD AND USE THEREOF” (HC SYNTHETIC PHARMACEUTICAL CO., LTD., priority 2022, published 2026)
≈ marks a conversion by molar mass, not a printed value. Like-named read-outs stand apart in the source and are kept apart here.

Key:
[1] = Solubility in water, methanol and isopropanol; assay type: physicochemical
Description: The solubility in water, methanol, and isopropanol of the compounds of the present disclosure and the comparative compounds were measured separately.

[2] = test system: histamine-induced asthma in guinea pigs; experiment: Antiasthmatic effect on histamine-induced asthma in guinea pigs; assay type: in vivo, guinea pig; details: 60 min after 1 mg/kg oral gavage; histamine hydrochloride spray; no asthma within 8 min counted as 8 min; X ± s, n = 5
Description: The time point at which the guinea pigs developed asthma was recorded. The time of convulsion and fall was taken as the latency period. Guinea pigs with a latency period exceeding 180 seconds were not selected. […] The guinea pigs were administered by oral gavage at a dose of 2 mL/kg·bw. Sixty minutes after the administration, the guinea pigs were placed in bell jars, and histamine hydrochloride solution was sprayed under the same conditions as in the previous selection. The latency period for the onset of asthma was recorded. […] The results were processed statistically.

[3] = test system: isolated ileal smooth muscle of guinea pigs; experiment: Muscle tone of isolated ileal smooth muscle of guinea pigs (compound alone); design: species or system guinea pig; details: 5 minutes after adding drug, no histamine; X ± s, n = 8
Description: (§1) The guinea pig was knocked unconscious with a wooden stick, and the abdomen was immediately dissected to separate the ileum about 15 cm in length. The contents of the intestinal segment were flushed with Tyrode's solution and placed in Tyrode's solution at a constant temperature of 37° C. for later use, and oxygen was supplied simultaneously. The experimental intestinal tract (1 cm in length) was cut and placed into 20 ml of Tyrode's solution at a constant temperature of 37° C. with a continuous oxygen supply. One end of the intestine was fixed on the ventilation hook and the other end was connected to the muscle tone transducer and led to the computer interface. The muscle tone value of the ileal smooth muscle was recorded with a BL system. The experiment was carried out after the intestinal segment contraction became stable. […] The operation was repeated 8 times. The antispasmodic percentage was calculated according to the following formula. [formula]

[4] = Accelerated stability test; assay type: physicochemical; details: 40° C.±2° C., RH 75%±5%
Description: The compound of the present disclosure was placed at a temperature of 40° C.±2° C. and a relative humidity of 75%±5% for 6 months, and samples were taken to determine for the descriptions, related substances, and contents.

[5] = test system: histamine-contracted isolated ileal smooth muscle of guinea pigs; experiment: Muscle tone of isolated ileal smooth muscle of guinea pigs contracted with histamine; design: species or system guinea pig; details: 3 minutes after adding 0.05 mL compound to histamine-contracted ileum; x ± s, n = 8
Description: as §1, with “using” for “according to”, “equation.” for “formula. [formula]”

[6] = organic solvent or mixture, solvent isopropanol, read-out: Solubility, Isopropanol
[7] = organic solvent or mixture, solvent methanol, read-out: Solubility, Methanol
[8] = water, solvent water, read-out: Solubility, Water
[9] = methanol, organic solvent or mixture, solvent methanol, read-out: Solubility, Methanol
[10] = isopropanol, organic solvent or mixture, solvent isopropanol, read-out: Solubility, Isopropanol

solubility [1, 8] [mg/mL]	solubility [1, 9] [mg/mL]	solubility [1, 10] [mg/mL]	Compound	other results
30 (≈ 66.8 mM)	40 (≈ 89.1 mM)	–	O=P(O)(O)OCCCN1CCC(=C2c3ccc(Cl)cc3CCc3cccnc32)CC1 [Compound III-7]	–
30 (≈ 69.4 mM)	40 (≈ 92.5 mM)	22 (≈ 50.9 mM)	O=P(O)(O)OCCCN1CCC(=C2c3ccc(F)cc3CCc3cccnc32)CC1 [Compound III-8]	Post-administration latency period [2]: 370.94 ± 50.29 s
30 (≈ 60.8 mM)	40 (≈ 81.1 mM)	22 (≈ 44.6 mM)	O=P(O)(O)OCCCN1CCC(=C2c3ccc(Br)cc3CCc3cccnc32)CC1 [Compound III-9]	–
30 (≈ 64.8 mM)	43 (≈ 92.9 mM)	–	O=P(O)(O)OCCCCN1CCC(=C2c3ccc(Cl)cc3CCc3cccnc32)CC1 [Compound III-10]	Antispasmodic percentage (%) [3]: 35.75 ± 19.99%
30 (≈ 67.2 mM)	43 (≈ 96.3 mM)	25 (≈ 56 mM)	O=P(O)(O)OCCCCN1CCC(=C2c3ccc(F)cc3CCc3cccnc32)CC1 [Compound III-11]	Antispasmodic percentage (%) [3]: 31.58 ± 18.30%
32 (≈ 63.1 mM)	43 (≈ 84.8 mM)	25 (≈ 49.3 mM)	O=P(O)(O)OCCCCN1CCC(=C2c3ccc(Br)cc3CCc3cccnc32)CC1 [Compound III-12]	–
32 (≈ 67.1 mM)	44 (≈ 92.3 mM)	–	O=P(O)(O)OCCCCCN1CCC(=C2c3ccc(Cl)cc3CCc3cccnc32)CC1 [Compound III-13]	–
32 (≈ 69.5 mM)	44 (≈ 95.6 mM)	25 (≈ 54.3 mM)	O=P(O)(O)OCCCCCN1CCC(=C2c3ccc(F)cc3CCc3cccnc32)CC1 [Compound III-14]	Content ([4]; Month 2): 99.5%; Content ([4]; Month 3): 99.5%
32 (≈ 61.4 mM)	44 (≈ 84.4 mM)	25 (≈ 47.9 mM)	O=P(O)(O)OCCCCCN1CCC(=C2c3ccc(Br)cc3CCc3cccnc32)CC1 [Compound III-15]	–
30 (≈ 62.6 mM)	42 (≈ 87.7 mM)	25 (≈ 52.2 mM)	O=P(O)(O)OCOCCCN1CCC(=C2c3ccc(Cl)cc3CCc3cccnc32)CC1 [Compound III-17]	–
30 (≈ 60.9 mM)	42 (≈ 85.2 mM)	25 (≈ 50.7 mM)	O=P(O)(O)OCOCCCCN1CCC(=C2c3ccc(Cl)cc3CCc3cccnc32)CC1 [Compound III-18]	Content ([4]; Month 3): 99.5%
30 (≈ 59.2 mM)	42 (≈ 82.8 mM)	25 (≈ 49.3 mM)	O=P(O)(O)OCOCCCCCN1CCC(=C2c3ccc(Cl)cc3CCc3cccnc32)CC1 [Compound III-19]	–
432	44	–	O=P([O-])([O-])OCN1CCC(=C2c3ccc(Cl)cc3CCc3cccnc32)CC1.[Na+].[Na+] [Compound IV-1]	–
–	20	1	O=P([O-])([O-])OCCCCN1CCC(=C2c3ccc(Cl)cc3CCc3cccnc32)CC1.[Na+].[Na+] [Compound IV-4]	Content ([4]; Month 1): 99.6%; Content ([4]; Month 2): 99.6%; Content ([4]; Month 3): 99.6%
–	–	–	O=P(O)(O)OCCCCCN1CCC(=C2c3ccc(Cl)cc3CCc3cccnc32)CC1 [Compound IV-7]	Content ([4]; Month 3): 99.5%
–	–	–	O=P(O)(O)OCOCCN1CCC(=C2c3ccc(Cl)cc3CCc3cccnc32)CC1 [Compound IV-8]	Smooth muscle tone (g) After administration [5]: 1.19 ± 0.28 g; Content ([4]; Month 3): 99.5%
411	27	2	O=P([O-])([O-])OCOCCCN1CCC(=C2c3ccc(Cl)cc3CCc3cccnc32)CC1.[Na+].[Na+] [Compound IV-9]	Content ([4]; Month 1): 99.7%; Content ([4]; Month 2): 99.7%; Content ([4]; Month 3): 99.7%
401	27	2	O=P([O-])([O-])OCOCCCCN1CCC(=C2c3ccc(Cl)cc3CCc3cccnc32)CC1.[Na+].[Na+] [Compound IV-10]	–
390	27	2	O=P([O-])([O-])OCOCCCCCN1CCC(=C2c3ccc(Cl)cc3CCc3cccnc32)CC1.[Na+].[Na+] [Compound IV-11]	Smooth muscle tone (g) After administration [5]: 1.18 ± 0.28 g
–	–	–	OCCCCCCN1CCC(=C2c3ccc(Cl)cc3CCc3cccnc32)CC1 [Hydroxyhexyl desloratadine, Hydroxyhexyl Desloratadine]	Antispasmodic percentage (%) [5]: 58.30 ± 14.11%
–	–	–	OCCCCCN1CCC(=C2c3ccc(Cl)cc3CCc3cccnc32)CC1 [Hydroxypentyl desloratadine, Hydroxypentyl Desloratadine]	Antispasmodic percentage (%) [5]: 58.53 ± 12.34%
–	–	–	OCCCN1CCC(=C2c3ccc(Cl)cc3CCc3cccnc32)CC1 [Hydroxypropyl desloratadine, Hydroxypropyl Desloratadine]	Antispasmodic percentage (%) [5]: 58.77 ± 13.82%

Compound	solubility [1, 8] [mg/mL]	solubility [1, 9] [mg/mL]	solubility [1, 10] [mg/mL]	other results
O=P(O)(O)OCCN1CCC(=C2c3ccc(Cl)cc3CCc3cccnc32)CC1 [Compound III-4]	28 (≈ 64.4 mM)	–	–	solubility [1, 6]: 22 mg/mL (≈ 50.6 mM); solubility [1, 7]: 38 mg/mL (≈ 87.4 mM)
O=P(O)(O)OCCN1CCC(=C2c3ccc(F)cc3CCc3cccnc32)CC1 [Compound III-5]	28 (≈ 66.9 mM)	–	–	solubility [1, 6]: 22 mg/mL (≈ 52.6 mM); solubility [1, 7]: 40 mg/mL (≈ 95.6 mM)
O=P(O)(O)OCCN1CCC(=C2c3ccc(Br)cc3CCc3cccnc32)CC1 [Compound III-6]	28 (≈ 58.4 mM)	–	–	solubility [1, 6]: 22 mg/mL (≈ 45.9 mM); solubility [1, 7]: 40 mg/mL (≈ 83.5 mM)
O=P([O-])([O-])OCCN1CCC(=C2c3ccc(Cl)cc3CCc3cccnc32)CC1.[K+].[K+] [Compound IV-2]	389	23	1	Content ([4]; Month 1): 99.6%; Content ([4]; Month 3): 99.5%
